pIC50: −log10 of the molar value.
What was measured:
[1] = tested on: BCL-2-dependent acute lymphoblastic leukemia (ALL) cell line RS4;11 overexpressing Bcl-2 G101V; test: cells; assay type: cell-based; details: Homo sapiens, RS4-11; about 72 hours, ATPlite luminescence; read-out: RS4;11-G101V IC50
Method in brief: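 About 1×10^4 cells per well treated with compound for about 72 hours in medium with 5% FBS or 10% normal human serum. Viability from ATP-based luminescence (ATPlite) after lysis; IC50 derived from dose range.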

[2] = molecular target: MDM2 (Homo sapiens (Human), UniProt Q00987); test: In vitro MDM2 HTRF assay (inhibition of p53-MDM2 interaction); assay type: binding; details: GST-MDM2 / biotinylated p53 peptide
Sequence of MDM2 (Q00987 whole entry): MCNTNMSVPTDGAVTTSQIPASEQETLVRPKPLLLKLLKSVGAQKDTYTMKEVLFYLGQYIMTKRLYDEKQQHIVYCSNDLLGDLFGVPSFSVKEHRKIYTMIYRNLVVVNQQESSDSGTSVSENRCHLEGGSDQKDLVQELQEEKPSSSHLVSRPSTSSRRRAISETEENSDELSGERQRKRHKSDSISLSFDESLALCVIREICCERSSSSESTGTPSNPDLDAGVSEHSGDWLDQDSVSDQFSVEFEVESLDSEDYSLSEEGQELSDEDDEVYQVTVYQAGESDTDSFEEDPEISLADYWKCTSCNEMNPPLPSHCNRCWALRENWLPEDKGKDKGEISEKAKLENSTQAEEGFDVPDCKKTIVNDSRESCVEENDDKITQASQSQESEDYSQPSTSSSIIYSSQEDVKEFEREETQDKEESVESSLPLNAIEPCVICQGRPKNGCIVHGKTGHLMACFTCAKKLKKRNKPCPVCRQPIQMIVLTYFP

| Structure (SMILES) | pIC50 [1] | pIC50 [2] |
| --- | --- | --- |
| COc1cc(C(=O)N[C@H]2CCC[C@H](C#Cc3cccc4c3CN(C3CCC(=O)NC3=O)C4=O)C2)ccc1NC(=O)[C@@H]1N[C@@H](CC(C)(C)C)[C@@]2(CNc3cc(Cl)ccc32)[C@H]1c1cccc(Cl)c1F (stereo partly drawn) [Example 35, (2′S,3S,4′S,5′R)-6-chloro-4′-(3-chloro-2-fluorophenyl)-2′-(2,2-dimethylpropyl)-N-(4-{[(1S,3S)-3-{2-[2-(2,6-dioxopiperidin-3-yl)-1-oxo-3H-isoindol-4-yl]ethynyl}cyclohexyl]carbamoyl}-2-methoxyphenyl)-1,2-dihydrospiro[indole-3,3′-pyrrolidine]-5′-carboxamide] | 7.08 | 8.43 |
| COc1cc(C(=O)N2CCCC[C@@H]2CCC#Cc2cccc3c2CN([C@@H]2CCC(=O)NC2=O)C3=O)ccc1NC(=O)[C@@H]1N[C@@H](CC(C)(C)C)[C@@]2(CNc3cc(Cl)ccc32)[C@H]1c1cccc(Cl)c1F [Example 36, (2′S,3S,4′S,5′R)-6-chloro-4′-(3-chloro-2-fluorophenyl)-2′-(2,2-dimethylpropyl)-N-{4-[(2R)-2-(4-{2-[(3R)-2,6-dioxopiperidin-3-yl]-1-oxo-3H-isoindol-4-yl}but-3-yn-1-yl)piperidine-1-carbonyl]-2-methoxyphenyl}-1,2-dihydrospiro[indole-3,3′-pyrrolidine]-5′-carboxamide] | 7.45 | 8.69 |
| COc1cc(C(=O)N2CCCC[C@@H]2CCC#Cc2cccc3c2CN([C@H]2CCC(=O)NC2=O)C3=O)ccc1NC(=O)[C@@H]1N[C@@H](CC(C)(C)C)[C@@]2(CNc3cc(Cl)ccc32)[C@H]1c1cccc(Cl)c1F [Example 37, (2′S,3S,4′S,5′R)-6-chloro-4′-(3-chloro-2-fluorophenyl)-2′-(2,2-dimethylpropyl)-N-{4-[(2R)-2-(4-{2-[(3S)-2,6-dioxopiperidin-3-yl]-1-oxo-3H-isoindol-4-yl}but-3-yn-1-yl)piperidine-1-carbonyl]-2-methoxyphenyl}-1,2-dihydrospiro[indole-3,3′-pyrrolidine]-5′-carboxamide] | 7.46 | 8.71 |
| COc1cc(C(=O)N2CCCC[C@H]2CCC#Cc2cccc3c2CN([C@@H]2CCC(=O)NC2=O)C3=O)ccc1NC(=O)[C@@H]1N[C@@H](CC(C)(C)C)[C@@]2(CNc3cc(Cl)ccc32)[C@H]1c1cccc(Cl)c1F [Example 38, (2′S,3S,4′S,5′R)-6-chloro-4′-(3-chloro-2-fluorophenyl)-2′-(2,2-dimethylpropyl)-N-{4-[(2S)-2-(4-{2-[(3R)-2,6-dioxopiperidin-3-yl]-1-oxo-3H-isoindol-4-yl}but-3-yn-1-yl)piperidine-1-carbonyl]-2-methoxyphenyl}-1,2-dihydrospiro[indole-3,3′-pyrrolidine]-5′-carboxamide] | 7.17 | 8.42 |
| COc1cc(C(=O)N2CCCC[C@H]2CCC#Cc2cccc3c2CN([C@H]2CCC(=O)NC2=O)C3=O)ccc1NC(=O)[C@@H]1N[C@@H](CC(C)(C)C)[C@@]2(CNc3cc(Cl)ccc32)[C@H]1c1cccc(Cl)c1F [Example 39, (2′S,3S,4′S,5′R)-6-chloro-4′-(3-chloro-2-fluorophenyl)-2′-(2,2-dimethylpropyl)-N-{4-[(2S)-2-(4-{2-[(3S)-2,6-dioxopiperidin-3-yl]-1-oxo-3H-isoindol-4-yl}but-3-yn-1-yl)piperidine-1-carbonyl]-2-methoxyphenyl}-1,2-dihydrospiro[indole-3,3′-pyrrolidine]-5′-carboxamide] | 6.90 | 8.57 |
| COc1cc(C(=O)N2CCC3(CC2)CC(C#Cc2cccc4c2CN(C2CCC(=O)NC2=O)C4=O)C3)ccc1NC(=O)[C@@H]1N[C@@H](CC(C)(C)C)[C@@]2(CNc3cc(Cl)ccc32)[C@H]1c1cccc(Cl)c1F (stereo partly drawn) [Example 42, (2′S,3S,4′S,5′R)-6-chloro-4′-(3-chloro-2-fluorophenyl)-N-(4-(2-((2-(2,6-dioxopiperidin-3-yl)-1-oxoisoindolin-4-yl)ethynyl)-7-azaspiro[3.5]nonane-7-carbonyl)-2-methoxyphenyl)-2′-neopentylspiro[indoline-3,3′-pyrrolidine]-5′-carboxamide] | 7.00 | 8.35 |

Second part, the molecule after the results:

| pIC50 [1] | pIC50 [2] | Structure (SMILES) |
| --- | --- | --- |
| 7.55 | 8.33 | COc1cc(C(=O)N2CCC3(CC2)C[C@H]3C#Cc2cccc3c2CN(C2CCC(=O)NC2=O)C3=O)ccc1NC(=O)[C@@H]1N[C@@H](CC(C)(C)C)[C@@]2(CNc3cc(Cl)ccc32)[C@H]1c1cccc(Cl)c1F (stereo partly drawn) [Example 43, (2′S,3S,4′S,5′R)-6-chloro-4′-(3-chloro-2-fluorophenyl)-2′-(2,2-dimethylpropyl)-N-{4-[(1R)-1-{2-[2-(2,6-dioxopiperidin-3-yl)-1-oxo-3H-isoindol-4-yl]ethynyl}-6-azaspiro[2.5]octane-6-carbonyl]-2-methoxyphenyl}-1,2-dihydrospiro[indole-3,3′-pyrrolidine]-5′-carboxamide] |
| 7.88 | 8.74 | COc1cc(C(=O)N2CCC3(CC2)C[C@@H]3C#Cc2cccc3c2CN(C2CCC(=O)NC2=O)C3=O)ccc1NC(=O)[C@@H]1N[C@@H](CC(C)(C)C)[C@@]2(CNc3cc(Cl)ccc32)[C@H]1c1cccc(Cl)c1F (stereo partly drawn) [Example 44, (2′S,3S,4′S,5′R)-6-chloro-4′-(3-chloro-2-fluorophenyl)-2′-(2,2-dimethylpropyl)-N-{4-[(1S)-1-{2-[2-(2,6-dioxopiperidin-3-yl)-1-oxo-3H-isoindol-4-yl]ethynyl}-6-azaspiro[2.5]octane-6-carbonyl]-2-methoxyphenyl}-1,2-dihydrospiro[indole-3,3′-pyrrolidine]-5′-carboxamide] |
| 7.91 | 8.92 | COc1cc(C(=O)N2CC[C@H](C#Cc3cccc4c3CN(C3CCC(=O)NC3=O)C4=O)C2)ccc1NC(=O)[C@@H]1N[C@@H](CC(C)(C)C)[C@@]2(CNc3cc(Cl)ccc32)[C@H]1c1cccc(Cl)c1F (stereo partly drawn) [Example 48, (2′S,3S,4′S,5′R)-6-chloro-4′-(3-chloro-2-fluorophenyl)-2′-(2,2-dimethylpropyl)-N-{4-[(3R)-3-{2-[2-(2,6-dioxopiperidin-3-yl)-1-oxo-3H-isoindol-4-yl]ethynyl}pyrrolidine-1-carbonyl]-2-methoxyphenyl}-1,2-dihydrospiro[indole-3,3′-pyrrolidine]-5′-carboxamide] |
| 7.85 | 8.98 | COc1cc(C(=O)N2CC[C@@H](C#Cc3cccc4c3CN(C3CCC(=O)NC3=O)C4=O)C2)ccc1NC(=O)[C@@H]1N[C@@H](CC(C)(C)C)[C@@]2(CNc3cc(Cl)ccc32)[C@H]1c1cccc(Cl)c1F (stereo partly drawn) [Example 49, (2′S,3S,4′S,5′R)-6-chloro-4′-(3-chloro-2-fluorophenyl)-2′-(2,2-dimethylpropyl)-N-{4-[(3S)-3-{2-[2-(2,6-dioxopiperidin-3-yl)-1-oxo-3H-isoindol-4-yl]ethynyl}pyrrolidine-1-carbonyl]-2-methoxyphenyl}-1,2-dihydrospiro[indole-3,3′-pyrrolidine]-5′-carboxamide] |
| 7.63 | 8.80 | COc1cc(C(=O)N[C@@H]2CCCN(CC#Cc3cccc4c3CN(C3CCC(=O)NC3=O)C4=O)C2)ccc1NC(=O)[C@@H]1N[C@@H](CC(C)(C)C)[C@@]2(CNc3cc(Cl)ccc32)[C@H]1c1cccc(Cl)c1F (stereo partly drawn) [Example 50, (2′S,3S,4′S,5′R)-6-chloro-4′-(3-chloro-2-fluorophenyl)-2′-(2,2-dimethylpropyl)-N-(4-{[(3R)-1-{3-[2-(2,6-dioxopiperidin-3-yl)-1-oxo-3H-isoindol-4-yl]prop-2-yn-1-yl}piperidin-3-yl]carbamoyl}-2-methoxyphenyl)-1,2-dihydrospiro[indole-3,3′-pyrrolidine]-5′-carboxamide] |
| 7.74 | 8.85 | COc1cc(C(=O)N2CCN(CC#Cc3cccc4c3CN(C3CCC(=O)NC3=O)C4=O)CC2)ccc1NC(=O)[C@@H]1N[C@@H](CC(C)(C)C)[C@@]2(CNc3cc(Cl)ccc32)[C@H]1c1cccc(Cl)c1F (stereo partly drawn) [Example 51, (2′S,3S,4′S,5′R)-6-chloro-4′-(3-chloro-2-fluorophenyl)-2′-(2,2-dimethylpropyl)-N-[4-(4-{3-[2-(2,6-dioxopiperidin-3-yl)-1-oxo-3H-isoindol-4-yl]prop-2-yn-1-yl}piperazine-1-carbonyl)-2-methoxyphenyl]-1,2-dihydrospiro[indole-3,3′-pyrrolidine]-5′-carboxamide] |
| 8.96 | 7.63 | COc1cc(C(=O)N2CCC3(CC2)C[C@@H]3C#Cc2cccc3c2CN([C@H]2CCC(=O)NC2=O)C3=O)ccc1NC(=O)[C@@H]1N[C@@H](CC(C)(C)C)[C@@]2(CNc3cc(C(F)(F)F)ncc32)[C@H]1c1cccc(Cl)c1F [Example 56, (2S,3S,4S,5R)-4-(3-chloro-2-fluorophenyl)-N-(4-((S)-1-((2-((S)-2,6-dioxopiperidin-3-yl)-1-oxoisoindolin-4-yl)ethynyl)-6-azaspiro[2.5]octane-6-carbonyl)-2-methoxyphenyl)-2-neopentyl-6′-(trifluoromethyl)-1′,2′-dihydrospiro[pyrrolidine-3,3′-pyrrolo[3,2-c]pyridine]-5-carboxamide] |

— patent US20250073340A1, “SPIROCYCLIC MDM2 MODULATOR AND USES THEREOF” (Newave Pharmaceutical Inc., priority 2021, published 2025)
